Data as given in US12162867B2, “Inhibitors of RNA helicase DHX9 and uses thereof” (ACCENT THERAPEUTICS, INC., priority 2022, dated 2024).
Read-outs that look alike come from different tables or passages of the source.

Key:
[1] = biological target: T1, Human recombinant DHX9 protein (Homo sapiens, UniProt Q08211); test: DHX9 ATPase assay (ADP-Glo); type: biochemical; settings: for IC50: read-out: DHX9 Biochemical Inflection Point
T1 construct: purchased Viva

[2] = system: circBRIP1 in HCT116 cells; test: DHX9 circBRIP1 cellular target engagement SYBR Green assay (qPCR); type: cell-based; settings: Homo sapiens, HCT-116, circBRIP1, HCT116 cells; SyBr assay (marked ^+); read-out: DHX9 Cellular Target Engagement EC50
NCI-H747 cells = test: DHX9 cellular proliferation assay (CellTiter-Glo), NCI-H747 (CRC-MSS); type: cell-based; settings: performed at Pharmaron, read-out: H747 (CRC-MSS) Antiproliferative IC50
[3] = system: circBRIP1 in HCT116 cells; test: DHX9 circBRIP1 cellular target engagement TaqMan Multiplex assay (qPCR); type: cell-based; settings: * Taqman assay was used, read-out: DHX9 Cellular Target Engagement EC50
LS411N cells = test: DHX9 cellular proliferation assay (CellTiter-Glo), LS411N (CRC-MSI); type: cell-based; settings: LS411N, performed at Pharmaron, read-out: LS411N (CRC-MSI-H) Antiproliferative IC50
[4] = inflection point of dose-response curve
[5] = Homo sapiens, NCI-H747, NCI-H747
[6] = Homo sapiens, HCT-116, circBRIP1, HCT116 cells

T1 sequence (Q08211 whole entry): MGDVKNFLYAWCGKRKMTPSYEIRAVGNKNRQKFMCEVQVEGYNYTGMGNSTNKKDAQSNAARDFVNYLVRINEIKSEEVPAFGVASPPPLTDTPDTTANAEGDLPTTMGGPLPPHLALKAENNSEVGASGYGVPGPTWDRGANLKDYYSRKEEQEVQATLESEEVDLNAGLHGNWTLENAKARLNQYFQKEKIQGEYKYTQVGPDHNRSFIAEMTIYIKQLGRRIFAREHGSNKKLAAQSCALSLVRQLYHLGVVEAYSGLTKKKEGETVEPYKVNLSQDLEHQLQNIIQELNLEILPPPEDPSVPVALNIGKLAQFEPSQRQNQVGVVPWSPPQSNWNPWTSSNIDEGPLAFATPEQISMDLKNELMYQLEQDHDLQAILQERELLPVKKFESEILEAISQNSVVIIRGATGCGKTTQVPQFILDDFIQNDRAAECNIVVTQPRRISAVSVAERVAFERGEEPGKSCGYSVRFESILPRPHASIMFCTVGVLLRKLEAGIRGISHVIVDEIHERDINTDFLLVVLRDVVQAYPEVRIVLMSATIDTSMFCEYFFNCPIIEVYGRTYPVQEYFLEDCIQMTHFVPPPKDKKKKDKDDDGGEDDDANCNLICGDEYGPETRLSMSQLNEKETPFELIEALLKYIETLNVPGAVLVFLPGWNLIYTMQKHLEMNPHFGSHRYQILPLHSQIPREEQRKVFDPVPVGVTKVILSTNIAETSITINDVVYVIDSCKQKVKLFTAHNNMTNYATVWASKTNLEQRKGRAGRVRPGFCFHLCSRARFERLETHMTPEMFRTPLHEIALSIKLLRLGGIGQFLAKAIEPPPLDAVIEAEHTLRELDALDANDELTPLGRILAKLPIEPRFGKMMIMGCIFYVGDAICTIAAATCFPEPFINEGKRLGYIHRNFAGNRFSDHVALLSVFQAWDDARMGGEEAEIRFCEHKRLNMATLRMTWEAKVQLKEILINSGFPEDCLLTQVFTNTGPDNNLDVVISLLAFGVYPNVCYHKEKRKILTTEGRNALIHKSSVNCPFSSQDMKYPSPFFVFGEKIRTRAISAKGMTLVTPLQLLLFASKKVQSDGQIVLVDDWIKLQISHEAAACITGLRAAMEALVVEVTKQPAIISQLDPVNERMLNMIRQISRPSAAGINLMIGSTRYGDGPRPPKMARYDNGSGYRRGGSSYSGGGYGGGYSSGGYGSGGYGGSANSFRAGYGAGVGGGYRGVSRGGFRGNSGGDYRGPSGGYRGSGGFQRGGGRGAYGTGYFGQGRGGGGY

Q: How did the IC50 [1, 4] turn out when `CS(=O)(=O)Nc1cc(Cl)cc(NC(=O)c2cnn([C@@H]3CCCC[C@H]3O)c2)c1` (single isomer, unassigned) [Example 150, N-(3-chloro-5-(methylsulfonamido)phenyl)-1-(trans-2-hydroxycyclohexyl)-1H-pyrazole-4-carboxamide] was run?
A: The IC50 was 147 nM.

Q: And the EC50 [2]?
A: The EC50 was 6560 nM.

Q: With `CS(=O)(=O)Nc1cc(Cl)cc(NC(=O)c2cnn([C@H]3CCC[C@H]3Oc3ccccc3)c2)c1` (single isomer, unassigned) [Example 259] as the compound, how does the IC50 [1, 4] read?
A: The IC50 was 1940 nM.

Q: And the EC50 [2]?
A: Its EC50 is over 10000 nM.

Q: `CS(=O)(=O)Nc1cc(Cl)cc(NC(=O)c2cnn([C@H]3CCC[C@H]3c3ccccc3)c2)c1` (single isomer, unassigned) [Example 260] was tested. Which IC50 [1, 4] did it give?
A: Its IC50 is 715 nM.

Q: What about the EC50 [2] of the same compound?
A: Its EC50 is over 10000 nM.

Q: With `Cc1sc(C(=O)Nc2cc(Cl)cc(NS(C)(=O)=O)c2)cc1-c1ncccc1OC(C)c1cc(F)cc(F)c1` (single isomer, unassigned) [Example 632] as the compound, how does the IC50 (NCI-H747 cells; [5]) read?
A: The IC50 was over 10000 nM.

Q: And the EC50 [3, 6]?
A: Its EC50 is 112 nM.

Q: What about the “DHX9 Biochemical Max Inhibition (%)” value [1] of the same compound?
A: Its value is 71.5%.

Q: And the IC50 (LS411N cells; Homo sapiens, LS-411N)?
A: The IC50 was 96.8 nM.

Q: `Cc1sc(C(=O)Nc2cc(Cl)cc(NS(C)(=O)=O)c2)cc1-c1ncccc1-c1cncc(F)c1` [Example 229] was tested. Which IC50 (NCI-H747 cells; Homo sapiens, NCI-H747, NCI-H747, CRC-MSS) did it give?
A: Its IC50 is over 10000 nM.

Q: What about the “DHX9 Biochemical Max Inhibition” value [1] of the same compound?
A: Its value is 72.5%.

Q: What about the IC50 [1, 4] of the same compound?
A: The IC50 was 9.6 nM.

Q: And the IC50 (LS411N cells; Homo sapiens, LS-411N, CRC-MSI-H)?
A: The IC50 was 51 nM.

Q: And the EC50 [2]?
A: The EC50 was 78.1 nM.

Q: For `CC(C)(C)OC(=O)NC1CC2(C1)CC(n1cc(C(=O)Nc3cc(Cl)cc(NS(C)(=O)=O)c3)cn1)C2` (centres unmarked) [Example 318], which IC50 [1, 4] is on record?
A: The IC50 was 207 nM.

Q: And the EC50 [2]?
A: Its EC50 is 4900 nM.

Q: Which IC50 (NCI-H747 cells; [5]) does the source give for `Cc1sc(C(=O)Nc2cc(Cl)cc(NS(C)(=O)=O)c2)cc1-c1ncc(N2CCC3(C2)CC3(F)F)cn1` (centres unmarked) [Example 491] here?
A: The IC50 was 2160 nM.

Q: What about the EC50 [3, 6] of the same compound?
A: Its EC50 is 20.7 nM.

Q: And the “DHX9 Biochemical Max Inhibition (%)” value [1]?
A: Its value is 72%.

Q: What about the IC50 (LS411N cells; Homo sapiens, LS-411N) of the same compound?
A: Its IC50 is 59.1 nM.

Q: What does the source list for `CCS(=O)(=O)Nc1cc(Cl)cc(NC(=O)c2cc(-c3ncc(N4CC(F)(F)C4)cc3F)n(C)c2)c1` [Example 517]?
A: IC50 (NCI-H747 cells; NCI-H747): 2220 nM; EC50 ([3]; circBRIP1, HCT116 cells): 16.8 nM; DHX9 Biochemical Max Inhibition (%) [1]: 54.1%; IC50 (LS411N cells): 135 nM

Q: What does the source list for `CN1CC(Oc2ccc(-c3cc(C(=O)Nc4cc(Cl)cc(NS(C)(=O)=O)c4)cn3C)nc2)C1` [Example 612, N-(3-chloro-5-methanesulfonamidophenyl)-1-methyl-5-{5-[(1-methylazetidin-3-yl)oxy]pyridin-2-yl}pyrrole-3-carboxamide]?
A: IC50 (NCI-H747 cells; [5]): > 10000 nM; EC50 [3, 6]: 21.2 nM; DHX9 Biochemical Max Inhibition (%) [1]: 70%; IC50 [1]: 10.1 nM; IC50 (LS411N cells; Homo sapiens, LS-411N): 281 nM

Q: What does the source list for `Cn1cc(C(=O)Nc2cc(Cl)cc(NS(C)(=O)=O)c2)cc1-c1ncc(F)cc1CCc1cncc(F)c1` [Example 728]?
A: EC50 ([3]; circBRIP1, HCT116 cells): 1350 nM; DHX9 Biochemical Max Inhibition (%) [1]: 62.5%
